14 compounds from ChEMBL document CHEMBL5338729, “E3 Ligases Meet Their Match: Fragment-Based Approaches to Discover New E3 Ligands and to Unravel E3 Biology” (J Med Chem, 2023) can be followed below.

Some results are limits rather than exact numbers.

Assay [1] concerns the target T1, E3 ubiquitin-protein ligase RNF4 (Homo sapiens, UniProt P78317).
T1 sequence (P78317 whole entry): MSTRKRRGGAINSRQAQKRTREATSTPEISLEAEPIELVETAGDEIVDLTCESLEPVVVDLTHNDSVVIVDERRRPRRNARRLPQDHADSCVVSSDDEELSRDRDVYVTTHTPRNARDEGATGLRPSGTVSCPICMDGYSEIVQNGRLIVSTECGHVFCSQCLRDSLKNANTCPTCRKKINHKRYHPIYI
The assay can be described thus: Inhibition of human recombinant RNF4 incubated for 30 mins by SDS-PAGE based densitometry.

A further assay addresses Protein cereblon (Homo sapiens, UniProt Q96SW2). The assay can be described thus: Binding affinity to CRBN (unknown origin) assessed as inhibition constant by FRET assay.
In assay [2] the target is T2, E3 ubiquitin-protein ligase RNF31 (Homo sapiens, UniProt Q96EP0).
T2 sequence (Q96EP0 whole entry): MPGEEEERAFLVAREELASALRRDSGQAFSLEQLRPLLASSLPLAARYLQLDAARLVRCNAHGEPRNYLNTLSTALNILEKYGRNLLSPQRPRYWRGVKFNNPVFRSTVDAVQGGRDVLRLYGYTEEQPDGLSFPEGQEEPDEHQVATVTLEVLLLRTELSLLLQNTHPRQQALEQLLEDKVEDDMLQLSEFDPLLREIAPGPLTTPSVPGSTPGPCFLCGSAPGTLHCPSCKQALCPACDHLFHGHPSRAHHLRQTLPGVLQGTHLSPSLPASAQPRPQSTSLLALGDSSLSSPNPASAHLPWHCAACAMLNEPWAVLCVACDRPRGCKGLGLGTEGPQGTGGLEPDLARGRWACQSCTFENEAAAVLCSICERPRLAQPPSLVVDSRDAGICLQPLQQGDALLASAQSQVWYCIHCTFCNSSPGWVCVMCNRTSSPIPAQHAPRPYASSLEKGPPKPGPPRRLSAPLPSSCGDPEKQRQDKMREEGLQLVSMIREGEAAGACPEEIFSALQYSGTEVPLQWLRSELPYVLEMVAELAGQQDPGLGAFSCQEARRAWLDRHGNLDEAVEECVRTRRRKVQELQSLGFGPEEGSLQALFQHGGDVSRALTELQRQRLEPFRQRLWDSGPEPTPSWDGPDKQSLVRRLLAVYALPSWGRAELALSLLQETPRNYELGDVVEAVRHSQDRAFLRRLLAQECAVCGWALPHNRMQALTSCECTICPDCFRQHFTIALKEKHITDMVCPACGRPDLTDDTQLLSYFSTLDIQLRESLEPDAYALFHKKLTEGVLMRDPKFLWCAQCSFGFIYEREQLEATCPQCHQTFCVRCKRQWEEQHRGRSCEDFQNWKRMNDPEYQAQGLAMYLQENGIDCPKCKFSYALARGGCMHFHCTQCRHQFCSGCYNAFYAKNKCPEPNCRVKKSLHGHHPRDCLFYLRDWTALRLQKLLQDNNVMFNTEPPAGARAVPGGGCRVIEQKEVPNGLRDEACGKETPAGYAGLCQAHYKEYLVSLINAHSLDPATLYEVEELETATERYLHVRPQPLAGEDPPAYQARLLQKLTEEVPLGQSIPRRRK
The assay can be described thus: Binding affinity to HOIP (unknown origin) assessed as dissociation constant.

In assay [3] the target is von Hippel-Lindau disease tumor suppressor (Homo sapiens, UniProt P40337). The assay can be described thus: Binding affinity to VHL (unknown origin) assessed as dissociation constant by isothermal titration calorimetry assay.
Assay [4] in a line: Inhibition of RING1B-BMI1 (unknown origin). The arrangement: species or system Homo sapiens.
A short description of assay [5]: Binding affinity to RING1B-BMI1 (unknown origin). Also on record: species or system Homo sapiens.

Protein cereblon, sequence (Q96SW2 whole entry): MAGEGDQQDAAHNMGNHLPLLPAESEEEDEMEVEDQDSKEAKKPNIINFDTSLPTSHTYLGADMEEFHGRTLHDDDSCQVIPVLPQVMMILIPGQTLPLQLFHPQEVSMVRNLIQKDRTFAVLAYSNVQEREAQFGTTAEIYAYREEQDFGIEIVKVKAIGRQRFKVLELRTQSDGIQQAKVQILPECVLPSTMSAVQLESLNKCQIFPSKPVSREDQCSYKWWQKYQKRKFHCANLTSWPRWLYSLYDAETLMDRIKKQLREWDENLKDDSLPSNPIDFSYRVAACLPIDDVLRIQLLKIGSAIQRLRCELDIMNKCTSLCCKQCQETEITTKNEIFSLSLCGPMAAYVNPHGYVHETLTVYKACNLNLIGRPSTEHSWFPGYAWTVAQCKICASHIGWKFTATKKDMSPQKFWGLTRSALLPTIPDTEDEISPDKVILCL
von Hippel-Lindau disease tumor suppressor, sequence (P40337 whole entry): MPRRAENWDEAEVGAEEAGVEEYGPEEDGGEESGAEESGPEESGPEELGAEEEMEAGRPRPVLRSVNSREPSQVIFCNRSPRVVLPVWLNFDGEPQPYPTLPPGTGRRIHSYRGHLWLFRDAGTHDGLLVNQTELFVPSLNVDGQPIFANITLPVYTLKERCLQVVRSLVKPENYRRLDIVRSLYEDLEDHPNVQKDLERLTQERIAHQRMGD

In the case of `O=C(CCl)Nc1ccc(Oc2ccccc2)cc1`, in assay [1], the IC50 (in general, the concentration that gives 50% inhibition) came out at 10 µM. `O=c1cc[nH]c(=O)[nH]1` [URACIL]: on Protein cereblon, the Ki (commonly a dissociation constant, usually derived from enzyme kinetics or from competition with a known ligand) is 35 µM. `COC(=O)/C=C/CNC(=O)c1cc2c([nH]c1=O)CCC2`: the Kd – broadly, the equilibrium constant for the complex coming apart – in assay [2] was greater than 400 µM. Consider `O=C1CCSc2ccc(Cl)cc21`, for which, in assay [3], the Kd was 6700 µM.

Compound `CCc1c(-c2cccc3[nH]ccc23)[nH]c(C(=O)O)c1-c1ccccc1Cl` came in with an IC50 in assay [4] of 12 µM. This compound also showed a Kd in assay [5] of 11.5 µM. As to `O=C1CCC(=O)N1` [SUCCINIMIDE], the Ki on Protein cereblon came to 4.3 µM. The same measure, in the same setting: as for `O=C1CCN1`, the figure is 77 µM. For `CC(C)c1c(-c2cccc3[nH]ccc23)[nH]c(C(=O)O)c1-c1c(Cl)ccc2[nH]ccc12`, the IC50 in assay [4] was 1.6 µM. In assay [5], this compound returned a Kd of 2.8 µM. In the case of `O=C(O)c1ccc(-c2ccccc2)s1`, the Kd in assay [5] is roughly 7000 µM. On to `O=C1CNC(=O)N1` [HYDANTOIN], for which the Ki on Protein cereblon was 43 µM. With `O=C1CCNC(=O)N1`, the Ki at Protein cereblon stood at 88 µM.

With `O=C1CCCCN1`, the Ki on Protein cereblon was 146 µM. Still for that read-out and setting: as for `CC(=O)NC(N)=O`, the figure is 522 µM. On to `OCc1ccc(-n2cccc2)cc1`, for which, in assay [3], the Kd was found to be 5000 µM.
